Experimental data taken from the NIST ThermoML archive (doi:10.1016/j.fluid.2019.05.003).
± gives the expanded uncertainty stated by the source.

Assay: xn = mol fraction of the nth substance listed
Settings: 101 kPa, Liquid; for mass density: Vibrating tube method; for viscosity: Falling or rolling sphere viscometry

CC[N+]1(C)CCOCC1.[Br-] [N-ethyl-N-methylmorpholinium bromide] + O
mass density (323.15 K, x1 = 0.023): 1051.7 ± 0.5 kg/m3
mass density (323.15 K, x1 = 0.045): 1099.6 ± 0.4 kg/m3
mass density (323.15 K, x1 = 0.07): 1142.8 ± 0.4 kg/m3
mass density (323.15 K, x1 = 0.1): 1183.2 ± 0.4 kg/m3
mass density (323.15 K, x1 = 0.128): 1212.4 ± 0.3 kg/m3
mass density (323.15 K, x1 = 0.16): 1239.9 ± 0.3 kg/m3
mass density (323.15 K, x1 = 0.192): 1263 ± 0.4 kg/m3
mass density (323.15 K, x1 = 0.22): 1279.7 ± 0.4 kg/m3
mass density (323.15 K, x1 = 0.252): 1295.6 ± 0.4 kg/m3
viscosity (328.15 K, x1 = 0.023): 0.717 ± 0.043 mPa·s
viscosity (328.15 K, x1 = 0.045): 0.879 ± 0.053 mPa·s
viscosity (328.15 K, x1 = 0.07): 1.22 ± 0.074 mPa·s
viscosity (328.15 K, x1 = 0.1): 1.908 ± 0.12 mPa·s
viscosity (328.15 K, x1 = 0.128): 2.493 ± 0.15 mPa·s
viscosity (328.15 K, x1 = 0.16): 3.696 ± 0.22 mPa·s
viscosity (328.15 K, x1 = 0.192): 5.528 ± 0.34 mPa·s
viscosity (328.15 K, x1 = 0.22): 7.778 ± 0.47 mPa·s
viscosity (328.15 K, x1 = 0.252): 11.84 ± 0.72 mPa·s
mass density (328.15 K, x1 = 0.023): 1049.5 ± 0.5 kg/m3
mass density (328.15 K, x1 = 0.045): 1097.1 ± 0.4 kg/m3
mass density (328.15 K, x1 = 0.07): 1139.8 ± 0.4 kg/m3
mass density (328.15 K, x1 = 0.1): 1180.2 ± 0.4 kg/m3
mass density (328.15 K, x1 = 0.128): 1209.4 ± 0.3 kg/m3
mass density (328.15 K, x1 = 0.16): 1236.8 ± 0.3 kg/m3
mass density (328.15 K, x1 = 0.192): 1259.9 ± 0.4 kg/m3
mass density (328.15 K, x1 = 0.22): 1276.5 ± 0.4 kg/m3
mass density (328.15 K, x1 = 0.252): 1292.4 ± 0.4 kg/m3
viscosity (333.15 K, x1 = 0.023): 0.638 ± 0.039 mPa·s
viscosity (333.15 K, x1 = 0.045): 0.813 ± 0.049 mPa·s
viscosity (333.15 K, x1 = 0.07): 1.123 ± 0.068 mPa·s
viscosity (333.15 K, x1 = 0.1): 1.748 ± 0.11 mPa·s
viscosity (333.15 K, x1 = 0.128): 2.263 ± 0.14 mPa·s
viscosity (333.15 K, x1 = 0.16): 3.324 ± 0.2 mPa·s
viscosity (333.15 K, x1 = 0.192): 4.903 ± 0.3 mPa·s
viscosity (333.15 K, x1 = 0.22): 6.702 ± 0.41 mPa·s
viscosity (333.15 K, x1 = 0.252): 10.27 ± 0.62 mPa·s
mass density (333.15 K, x1 = 0.023): 1047.3 ± 0.5 kg/m3
mass density (333.15 K, x1 = 0.045): 1094.6 ± 0.4 kg/m3
mass density (333.15 K, x1 = 0.07): 1137.3 ± 0.4 kg/m3
mass density (333.15 K, x1 = 0.1): 1177.3 ± 0.4 kg/m3
mass density (333.15 K, x1 = 0.128): 1206.3 ± 0.3 kg/m3
mass density (333.15 K, x1 = 0.16): 1233.7 ± 0.3 kg/m3
mass density (333.15 K, x1 = 0.192): 1256.7 ± 0.4 kg/m3
mass density (333.15 K, x1 = 0.22): 1273.3 ± 0.4 kg/m3
mass density (333.15 K, x1 = 0.252): 1289.2 ± 0.4 kg/m3
viscosity (338.15 K, x1 = 0.023): 0.624 ± 0.038 mPa·s
viscosity (338.15 K, x1 = 0.045): 0.764 ± 0.046 mPa·s
viscosity (338.15 K, x1 = 0.07): 1.051 ± 0.064 mPa·s
viscosity (338.15 K, x1 = 0.1): 1.626 ± 0.098 mPa·s
viscosity (338.15 K, x1 = 0.128): 2.058 ± 0.12 mPa·s
viscosity (338.15 K, x1 = 0.16): 2.988 ± 0.18 mPa·s
viscosity (338.15 K, x1 = 0.192): 4.274 ± 0.26 mPa·s
viscosity (338.15 K, x1 = 0.22): 5.649 ± 0.34 mPa·s
viscosity (338.15 K, x1 = 0.252): 8.914 ± 0.54 mPa·s
mass density (338.15 K, x1 = 0.023): 1045.1 ± 0.5 kg/m3
mass density (338.15 K, x1 = 0.045): 1092.1 ± 0.4 kg/m3
mass density (338.15 K, x1 = 0.07): 1134.6 ± 0.4 kg/m3
mass density (338.15 K, x1 = 0.1): 1174.6 ± 0.3 kg/m3
mass density (338.15 K, x1 = 0.128): 1203.2 ± 0.3 kg/m3
mass density (338.15 K, x1 = 0.16): 1230.5 ± 0.3 kg/m3
mass density (338.15 K, x1 = 0.192): 1253.5 ± 0.4 kg/m3
mass density (338.15 K, x1 = 0.22): 1270.1 ± 0.4 kg/m3
mass density (338.15 K, x1 = 0.252): 1286 ± 0.4 kg/m3
viscosity (343.15 K, x1 = 0.023): 0.579 ± 0.035 mPa·s
viscosity (343.15 K, x1 = 0.045): 0.716 ± 0.043 mPa·s
viscosity (343.15 K, x1 = 0.07): 0.97 ± 0.059 mPa·s
viscosity (343.15 K, x1 = 0.1): 1.49 ± 0.09 mPa·s
viscosity (343.15 K, x1 = 0.128): 1.882 ± 0.11 mPa·s
viscosity (343.15 K, x1 = 0.16): 2.726 ± 0.17 mPa·s
viscosity (343.15 K, x1 = 0.192): 3.874 ± 0.23 mPa·s
viscosity (343.15 K, x1 = 0.22): 5.218 ± 0.32 mPa·s
viscosity (343.15 K, x1 = 0.252): 7.822 ± 0.47 mPa·s
mass density (343.15 K, x1 = 0.023): 1042.8 ± 0.5 kg/m3
mass density (343.15 K, x1 = 0.045): 1089.6 ± 0.4 kg/m3
mass density (343.15 K, x1 = 0.07): 1131.9 ± 0.4 kg/m3
mass density (343.15 K, x1 = 0.1): 1171.7 ± 0.3 kg/m3
mass density (343.15 K, x1 = 0.128): 1200 ± 0.3 kg/m3
mass density (343.15 K, x1 = 0.16): 1227.3 ± 0.3 kg/m3
mass density (343.15 K, x1 = 0.192): 1250.3 ± 0.4 kg/m3
mass density (343.15 K, x1 = 0.22): 1266.9 ± 0.4 kg/m3
mass density (343.15 K, x1 = 0.252): 1282.7 ± 0.4 kg/m3
viscosity (348.15 K, x1 = 0.023): 0.551 ± 0.033 mPa·s
viscosity (348.15 K, x1 = 0.045): 0.675 ± 0.041 mPa·s
viscosity (348.15 K, x1 = 0.07): 0.901 ± 0.055 mPa·s
viscosity (348.15 K, x1 = 0.1): 1.357 ± 0.082 mPa·s
viscosity (348.15 K, x1 = 0.128): 1.733 ± 0.11 mPa·s
viscosity (348.15 K, x1 = 0.16): 2.517 ± 0.15 mPa·s
viscosity (348.15 K, x1 = 0.192): 3.514 ± 0.21 mPa·s
viscosity (348.15 K, x1 = 0.22): 4.632 ± 0.28 mPa·s
viscosity (348.15 K, x1 = 0.252): 6.907 ± 0.42 mPa·s
mass density (348.15 K, x1 = 0.023): 1040.6 ± 0.5 kg/m3
mass density (348.15 K, x1 = 0.045): 1087.2 ± 0.4 kg/m3
mass density (348.15 K, x1 = 0.07): 1129.2 ± 0.4 kg/m3
mass density (348.15 K, x1 = 0.1): 1168.8 ± 0.3 kg/m3
mass density (348.15 K, x1 = 0.128): 1196.7 ± 0.3 kg/m3
mass density (348.15 K, x1 = 0.16): 1224.1 ± 0.3 kg/m3
mass density (348.15 K, x1 = 0.192): 1247.1 ± 0.4 kg/m3
mass density (348.15 K, x1 = 0.22): 1263.6 ± 0.4 kg/m3
mass density (348.15 K, x1 = 0.252): 1279.5 ± 0.4 kg/m3
